Assay results from patent US20230272390A1, “COMPOSITIONS AND METHODS FOR HEMOGLOBIN PRODUCTION” (THE CHILDREN'S HOSPITAL OF PHILADELPHIA, priority 2020, published 2023).

Columns and labels:
[1] = system: ZNF410; assay: RNA-seq in ZNF410 depleted differentiated HUDEP-2 cells; type: cell-based, human; settings: vs non-targeting sgRNA
Protocol: HUDEP-2 cells were cultured and differentiated as described (Kurita, et al. (2013) PLoS One 8:e59890). Briefly, StemSpan™ Serum-Free Expansion Medium (SFEM) supplemented with 50 ng/ml human stem cell factor (SCF), 10 μM dexamethasone, 1 μg/ml doxycycline, 3 IU/ml erythropoietin and 1% penicillin/streptomycin was utilized for routine cell maintenance. Cell density was kept at 0.1-1×10^6/ml. HUDEP-2 cells were differentiated for 6-7 days in IMDM supplemented with 50 ng/ml human SCF, 3 IU/ml erythropoietin, 2.5% fetal bovine serum, 250 μg/ml holo-transferrin, 10 ng/ml heparin, 10 μg/ml insulin, 1 μg/ml doxycycline and 1% penicillin/streptomycin.
Lentivirus was produced as described (Grevet, et al. (2018) Science 361:285-290). Briefly, 10-20 μg of expression vectors, 5-10 μg of pVSVG (pMD2.G) and 7.5-15 μg of psPAX2 package plasmids, and 80 μl of 1 mg/ml polyethylenimine (PEI) were mixed, incubated for 15-20 minutes, and added to HEK293T cells grown in 10 cm plates to above 90% confluence. Media were replaced 6-8 hours post transfection, virus was collected 24 hours and 48 hours post-transfection and pooled. For infection, virus-containing supernatant was mixed with the indicated cell lines with 8 μg/ml polybrene and 10 mM HEPES, and then spun at 2250 rpm for 1.5 hours at room temperature. Infected HUDEP-2 cells were selected for mCherry+ or GFP+ cell sorting at 48 hours post-infection.
(§1) Total RNAs were purified as described above. Sequencing libraries were then constructed using 100 ng of purified total RNA using the ScriptSeg™ Complete Kit (Illumina cat #BHMR1224) according to manufacturer's protocol. RNA was subjected to rRNA depletion using the Ribo-Zero™ removal reagents and fragmented. First strand cDNA was synthesized using a 5′ tagged random hexamer, and reversely transcribed, followed by annealing of a 5′ tagged, 3′-end blocked terminal-tagged oligo for second strand synthesis. The Di-tagged cDNA fragments were purified, barcoded, and PCR-amplified for 15 cycles.
(§2) The size and quality of each library were evaluated by Bioanalyzer 2100 (Agilent Technologies, Santa Clara, Calif.), and quantified using qPCR. Libraries were sequenced in paired-end mode on a NextSeq 500 instrument to generate 2×76 bp reads using Illumina-supplied kits. The sequence reads were processed using the ENCODE3 long RNA-seq pipeline (encodeproject.org/pipelines/ENCPL002LPE/). In brief, reads were mapped to the human genome (hg38 assembly) using STAR, followed by RSEM for gene quantifications.
(§3) The normalized FPKM (fragments per kilo base per million mapped reads) for each gene was averaged in 2 replicates and then filtered to keep those with average FPKM at least 10 in both HUDEP-2 cells and primary erythroblasts, resulting in ˜5000 high abundant genes each cell type for further analysis. Log2 fold-change was calculated from FPKM of sgRNA targeting ZNF410 compared to control sgRNA (non-targeting sgRNA) using the DESeq2 method, and top changed genes were selected with fold-change at least 1.5 and p-value<0.05. Commonly changed genes in both independent sgRNAs were considered to be significant. Scatter plots were generated using ggplot2 in RStudio for all expressed genes (FPKM>5).
(§4) ZNF410 functions as a transcriptional activator (Benanti, et al. (2002) Mol. Cell Biol., 22:7385-7397). To understand how ZNF410 regulates the transcription of γ-globin genes, RNA-seq experiments were performed in ZNF410 depleted differentiated HUDEP-2 cells and primary human erythroblasts.

[2] = system: ZNF410; assay: RNA-seq in ZNF410 depleted primary human erythroblasts (CD34+ HSPC derived); type: cell-based; settings: primary CD34+ cells (erythroblasts), vs non-targeting sgRNA
Protocol: Primary human CD34+ HSPCs from mobilized peripheral blood were purchased from the Fred Hutchinson Cancer Research Center. Human CD34+ HSPCs were differentiated using a three-phase culture system as described (Grevet, et al. (2018) Science 361:285-290). Briefly, IMDM supplemented with 3 IU/ml erythropoietin, 2.5% human male AB serum, 10 ng/ml heparin, and 10 μg/ml insulin was used as base medium. For phase I medium, 100 ng/ml human SCF, 5 ng/ml IL-3, and 250 μg/ml holo-transferrin were supplemented. For phase II medium, 100 ng/ml human SCF and 250 μg/ml holo-transferrin were added. For phase III medium, 1.25 mg/ml holo-transferrin was supplemented.
Commercial sgRNAs were purchased from IDT (Coralville, Iowa) or Synthego (Menlo Park, Calif.). To assemble the RNP complexes, 100 pmol sgRNA and 50 pmol SpCas9 protein (from IDT) were incubated at room temperature for 15 minutes. CD34+ HSPCs (50k-100k) at Day 3-4 of phase I culture were electroporated using P3 Primary Cell 4D Nucleofector™ X Kit (from Lonza) with the program DZ100 (Bak, et al. (2018) Nat. Protoc., 13:358-376).
as §1, §2, §3, §4

| Substance | log2(sgRNA/NT) AC092490.1 transcript [1] | log2(sgRNA/NT) AC104389.5 transcript [1] | log2(sgRNA/NT) AK1 transcript [1] | log2(sgRNA/NT) CD63 transcript [1] | log2(sgRNA/NT) CHD4 transcript [1] | log2(sgRNA/NT) CKB transcript [1] | log2(sgRNA/NT) FOS transcript [1] | log2(sgRNA/NT) H1F0 transcript [1] | log2(sgRNA/NT) HBG1/2 transcript [1] | log2(sgRNA/NT) PRG2 transcript [1] | log2(sgRNA/NT) S100A10 transcript [1] | log2(sgRNA/NT) SCARNA3 transcript [1] | log2(sgRNA/NT) TUBA1A transcript [1] | log2(sgRNA/NT) AC092490.1 transcript [2] | log2(sgRNA/NT) ACSL6 transcript [2] | log2(sgRNA/NT) CBX6 transcript [2] | log2(sgRNA/NT) CHD4 transcript [2] | log2(sgRNA/NT) HBG1/2 transcript [2] | log2(sgRNA/NT) HSPB1 transcript [2] | log2(sgRNA/NT) PAFAH1B3 transcript [2] | further results |
| --- | --- | --- | --- | --- | --- | --- | --- | --- | --- | --- | --- | --- | --- | --- | --- | --- | --- | --- | --- | --- | --- |
| ZNF410 sgRNA#2: sgRNA targeting the DNA-binding domain of ZNF410, CTCATCAGTGCCAAGTCTGT (SEQ ID NO: 5) (listed as DNA, chemistry not given here) | −1.50 | 4.01 | 1.83 | 1.75 | −1.23 | 2.24 | −1.88 | 2.13 | 4.28 | 2.17 | −1.59 | −1.30 | −1.07 | −1.47 | −1.47 | −2.01 | −1.08 | 1.75 | 2.15 | 1.40 | log2(sgRNA/NT) PLA2G6 transcript [1]: −1.01; log2(sgRNA/NT) RNU5B-1 transcript [1]: 3.60; log2(sgRNA/NT) RNU5E-1 transcript [1]: 1.82; log2(sgRNA/NT) RNU6-11P transcript [1]: −1.11; log2(sgRNA/NT) SCARNA18 transcript [1]: −1.20; log2(sgRNA/NT) SLC2A3P1 transcript [1]: −1.49; log2(sgRNA/NT) SNORD97 transcript [1]: 2.29; log2(sgRNA/NT) AC104389.5 transcript [2]: 1.43; log2(sgRNA/NT) AC130456.3 transcript [2]: −2.03; log2(sgRNA/NT) CDKN1A transcript [2]: 1.38; log2(sgRNA/NT) IFI27 transcript [2]: 1.78; log2(sgRNA/NT) KDM7A transcript [2]: −1.32; log2(sgRNA/NT) PKN1 transcript [2]: 1.43; log2(sgRNA/NT) PRDX5 transcript [2]: −1.09; log2(sgRNA/NT) RN7SL471P transcript [2]: 1.60; log2(sgRNA/NT) SELENOW transcript [2]: 1.67; log2(sgRNA/NT) SMOX transcript [2]: −1.24; log2(sgRNA/NT) STUB1 transcript [2]: 1.40; log2(sgRNA/NT) TMCC2 transcript [2]: −1.69; log2(sgRNA/NT) ZNF410 transcript [2]: −1.24 |
| ZNF410 sgRNA#1: sgRNA targeting the DNA-binding domain of ZNF410, GAACCACCAGATGTTTTCGG (SEQ ID NO: 4) (listed as DNA, chemistry not given here) | −1.45 | 3.95 | 1.99 | 1.90 | −0.99 | 2.44 | −1.32 | 2.41 | 4.26 | 2.09 | −1.60 | −0.89 | −1.06 | −1.50 | −1.67 | −1.56 | −0.93 | 1.47 | 2.01 | 1.35 | log2(sgRNA/NT) ATF5 transcript [1]: 1.65; log2(sgRNA/NT) GLIPR2 transcript [1]: −1.14; log2(sgRNA/NT) MIF transcript [1]: 1.92; log2(sgRNA/NT) PPP4R1 transcript [1]: −0.95; log2(sgRNA/NT) RF00019 transcript [1]: −2.43; log2(sgRNA/NT) TMCC2 transcript [1]: −1.18; log2(sgRNA/NT) TMSB10 transcript [1]: 1.79; log2(sgRNA/NT) COA4 transcript [2]: 1.30; log2(sgRNA/NT) DYNLT1 transcript [2]: 1.27; log2(sgRNA/NT) GPCPD1 transcript [2]: −0.93; log2(sgRNA/NT) ISOC2 transcript [2]: 1.34; log2(sgRNA/NT) PKN1 transcript [2]: 1.32; log2(sgRNA/NT) PRDX5 transcript [2]: −1.00; log2(sgRNA/NT) RPS19BP1 transcript [2]: 1.42; log2(sgRNA/NT) SELENOW transcript [2]: 1.55; log2(sgRNA/NT) SMOX transcript [2]: −1.45; log2(sgRNA/NT) SPC25 transcript [2]: −0.93; log2(sgRNA/NT) STUB1 transcript [2]: 1.46; log2(sgRNA/NT) TMCC2 transcript [2]: −2.01; log2(sgRNA/NT) ZNF410 transcript [2]: −1.49 |
